Assay results from US20210154119A1, “ASMT EXPRESSION PROMOTER” (Shiseido Company, Ltd., priority 2018, published 2021).

System: ASMT gene
Test: ASMT gene expression level in epidermal keratinocytes by quantitative PCR
Format: cell-based
Protocol: Commercially available normal adult skin-derived keratinocytes (Kurabo) were inoculated into a T75 flask at 5×10^5 cells/flask, and were cultured in a keratinocyte medium (Humedia-KG2, Kurabo) at 37° C. in a 5% CO2 atmosphere until they reached semiconfluency. The resulting cells were used as seed cells. The keratinocytes were collected by trypsinization, and inoculated into a 24-well plate at 2×10^4 cells/well, and cultured in a keratinocyte medium (Humedia-KG2, Kurabo) at 37° C., 5% CO2 atmosphere until they reached confluency.
To the epidermal keratinocytes having reached confluency was added the ectoin sample at an appropriate dilution ratio so that the ectoin concentration in the medium was 1 mM, followed by the continuation of the culture at 37° C. in a 5% CO2 atmosphere. As a control, a medium not containing the ectoin sample was used to carry out the culture.
Ten hours after the addition of ectoin, the medium was removed. Then the cells were lysed and RNA was extracted therefrom using a commercially available RNA extraction reagent (RNeasy Mini Kit, Qiagen).
Using the thus extracted RNA as a template, quantitative PCR was performed with a commercially available quantitative PCR reagent (BrilliantII QRT-PCR kit, Agilent) and a quantitative PCR device (Mx-3005P, Agilent), by which the expression level of the ASMT gene was determined. At the same time, the expression level of the RPLP0 gene whose expression level was almost constant was also determined as an internal standard. Commercially available PCR primer set (Takara Bio Inc.) specific to each gene was used.
To the epidermal keratinocytes cultured in the same manner as in Example 1 was added the ectoin sample at appropriate dilution ratios so that the ectoin concentration in the medium was 0.005 wt %, 0.01 wt %, 0.02 wt %, 0.05 wt %, 0.1 wt %, followed by the continuation of the culture at 37° C. in a 5% CO2 atmosphere.
To the epidermal keratinocytes cultured in the same manner as in Example 1 was added the respective samples at appropriate dilution ratios so that the concentration in the medium was respectively 1 mM (ectoine), 100 μM (glycosyl hesperidin), 0.1% (green tea extract), and 0.1% (oolong tea extract). These concentrations are all normal concentrations to be used in external formulations. After the addition of the samples, the cells were cultured, from which the ASMT expression level was evaluated in the same manner as in Example 1. As a control, a medium not containing any sample was used to carry out the culture.

CC1=N[C@H](C(=O)O)CCN1 [ectoin, (4S)-2-methyl-1,4,5,6-tetrahydropyrimidine-4-carboxylic acid]
ASMT gene expression level relative to control (control set to 1) (ectoin 1 mM in medium, 10 hours, normal adult skin-derived keratinocytes, versus medium containing no ectoin (FIG. 1)): very high ASMT expression promoting action
Concentration-dependency of ASMT expression promoting action (ectoin 0.005-0.1 wt % in medium, 10 hours, keratinocytes (FIG. 2)): dependent on the concentration thereof
ASMT gene expression level (ASMT/RPLP0) in comparison with various antioxidants (ectoine 1 mM versus glycosyl hesperidin 100 μM, green tea extract 0.1%, oolong tea extract 0.1%, keratinocytes (FIG. 3)): higher than that of green tea extract, oolong tea extract, and glycosyl hesperidin
ASMT gene expression level (ASMT/RPLP0) (ectoine 0.02 wt % in medium, 10 hours, keratinocytes, compared with 0.005 wt % and 0.01 wt % (FIG. 2)): higher than the cases of lower concentrations of ectoine (0.005 wt %, 0.01 wt %)
